In brackets after ≈: the same amount, converted by molar mass.
Key:
[1] = Inhibition of rat intestinal maltase
[2] = Inhibition of rat intestinal alpha-glucosidase
[3] = Inhibition of rat intestinal sucrase
[4] = Toxicity in brine shrimp assessed as induction of lethality; settings: artemia salina; read-out: LD50 (the source's name)
BC1 cell line = experiment: Cytotoxicity against human BC1 cells assessed as cell growth inhibition by colorimetric method; assay type: functional, cell-based
KB [5] = experiment: Cytotoxicity against human KB cells assessed as cell growth inhibition by colorimetric method; assay type: functional, cell-based
NCI-H187 [6] = experiment: Cytotoxicity against human NCI-H187 cells assessed as cell growth inhibition by colorimetric method; assay type: functional, cell-based
Plasmodium falciparum = experiment: Antimalarial activity multidrug-resistant Plasmodium falciparum K1 assessed as inhibition of parasite growth by [3H]-hypoxanthine incorporation assay; assay type: functional, organism-based
KB [7] = experiment: Cytotoxicity against human KB cells assessed as cell growth inhibition; assay type: functional, cell-based
NCI-H187 [8] = experiment: Cytotoxicity against human NCI-H187 cells assessed as cell growth inhibition; assay type: functional, cell-based
RAW264.7 = experiment: Antiinflammatory activity in mouse RAW264.7 cells assessed as decrease in LPS-induced IL-6 expression at 40 uM preincubated for 2 hrs followed by LPS-stimulation for 22 hrs by ELISA analysis relative to control; assay type: functional; settings: time 24 hrs
Candida albicans = experiment: Antifungal activity against Candida albicans assessed as fungal growth inhibition incubated for 24 hrs by absorbance based analysis; assay type: functional
HL-60 = experiment: Cytotoxicity against human HL-60 cells assessed as cell growth inhibition measured after 48 hrs by MTT assay; assay type: functional, cell-based; settings: HL-60, 48 h
SW480 = experiment: Cytotoxicity against human SW480 cells assessed as cell growth inhibition measured after 48 hrs by CCK-8 assay; assay type: functional, cell-based; settings: SW480, 48 h
HeLa = experiment: Cytotoxicity against human HeLa cells assessed as cell growth inhibition measured after 48 hrs by CCK-8 assay; assay type: functional, cell-based
Bipolaris oryzae = experiment: Antifungal activity against Cochliobolus miyabeanus assessed as fungal growth inhibition measured after 24 hrs by microscopic analysis; assay type: functional, organism-based
Vibrio parahaemolyticus = experiment: Antibacterial activity against Vibrio parahaemolyticus assessed as bacterial growth inhibition incubated for 24 hrs by absorbance based analysis; assay type: functional
Vibrio anguillarum = experiment: Antibacterial activity against Vibrio anguillarum assessed as bacterial growth inhibition incubated for 24 hrs by absorbance based analysis; assay type: functional
Vibrio alginolyticus = experiment: Antibacterial activity against Vibrio alginolyticus assessed as bacterial growth inhibition incubated for 24 hrs by absorbance based analysis; assay type: functional
Bacillus subtilis = experiment: Antibacterial activity against Bacillus subtilis assessed as reduction in microbial growth by modified broth dilution test; assay type: functional
Verticillium dahliae = experiment: Antifungal activity Verticillium dahliae assessed as inhibition of fungal growth by microbroth dilution method; assay type: functional
Phytophthora nicotianae = experiment: Antifungal activity Phytophthora parasitica assessed as inhibition of fungal growth by microbroth dilution method; assay type: functional
MGC-803 = experiment: Cytotoxicity against human MGC-803 cells assessed as cell growth inhibition measured after 72 hrs by MTT assay; assay type: functional
[9] = tested on: Clavibacter michiganensis subsp. sepedonicus; experiment: Antibacterial activity against Clavibacter michiganensis subsp. sepedonicus assessed as inhibition of bacterial growth measured after 18 to 48 hrs; assay type: functional; settings: time 18-48 hrs
[10] = tested on: Mycobacterium tuberculosis; experiment: Antimycobacterial activity against Mycobacterium tuberculosis H37Ra assessed as inhibition of bacterial growth by microplate alamar blue assay; assay type: functional

## C/C(=C\CC/C(=C/Cc1cc(O)ccc1O)C(=O)O)CC[C@@H](O)C(C)(C)O
[1]
  IC50: 11.1 µM
[2]
  IC50: 18.1 µM
[3]
  IC50: 14.6 µM

## C=C(C)[C@H]1O[C@H]2CC[C@@]3(C)[C@@](O)(CC[C@@]4(O)[C@@H]5OC(C)(C)[C@H]6C[C@@H]7C(=C)Cc8ccc9[nH]c(c5c9c8[C@@]76O)[C@]34C)[C@]23O[C@@H]3[C@H]1O
[4]
  LC50: 4.6 µM

## Cc1cc2c(c(=O)o1)C[C@H]1[C@]3(C)CC[C@H]4C(C)(C)[C@@H](O)CC[C@]4(C)[C@H]3CC[C@]1(C)O2
BC1 cell line
  IC50: 8.7 µg/mL (≈ 21 µM)
KB [5]
  IC50: 2.9 µg/mL (≈ 6.99 µM)
NCI-H187 [6]
  IC50: 9.8 µg/mL (≈ 23.6 µM)

## CC(=O)O[C@H]1C[C@@H](OC(C)=O)[C@@]2(C)[C@@H](CC[C@]3(C)[C@@H]2CC[C@]2(C)Oc4oc(C)cc(=O)c4C[C@@H]32)C1(C)C
Plasmodium falciparum
  IC50: 6.67 µM
KB [7]
  IC50: 32.7 µM
NCI-H187 [8]
  IC50: 32.7 µM

## Cc1oc(=O)c2c(c1C)O[C@@]1(C)[C@@H]([C@@H](C)[C@]3(O)CC(=O)C(C)(C)C(=O)[C@@]3(O)[C@H]1O)[C@H]2O
RAW264.7
  inhibition at 40 µM: 69%

## CC(C)(O)[C@@H]1C[C@@H](O)[C@]2(C(=O)O)[C@H](CC[C@@]3(C)[C@H]2CC[C@H]2Cc4c([nH]c5ccccc45)[C@@]23C)O1
Candida albicans
  MIC: 12.5 µg/mL (≈ 26.7 µM)

## CC1=C[C@H]2c3c(O)cc(C)c(C(=O)O)c3OC(C)(C)[C@H]2CC1 (relative stereo)
HL-60
  IC50: 24.1 µM

## C[C@]1(O)C=Cc2cc(C(=O)O)ccc2OC1
SW480
  IC50: 16.3 µM
HeLa
  IC50: 38.6 µM

## C/C=C(\C)C(=O)[C@H](C)C1=CC(=O)C2=C(O[C@@]3(C)CC[C@H]4OC(C(C)(C)O)CC[C@]4(C)[C@H]3C2)C1=O (some centres not stated)
Bipolaris oryzae
  IC50: 0.1 µg/mL (≈ 0.212 µM)

## CC(C)(O)[C@H](O)CC[C@]1(C)[C@@H](O)CC[C@@]2(C)[C@H]1CC[C@H]1Cc3c([nH]c4ccccc34)[C@@]12C
Vibrio parahaemolyticus
  MIC: 6.3 µM (≈ 2.77 µg/mL)
Vibrio anguillarum
  MIC: 3.1 µM (≈ 1.36 µg/mL)
Vibrio alginolyticus
  MIC: 3.1 µM (≈ 1.36 µg/mL)

## Cc1oc(=O)c2c(c1C)O[C@]1(C)[C@H](O)C(=O)[C@]3(O)C(C)(C)C(=O)C[C@@]3(O)[C@H](C)[C@H]1C2
Bacillus subtilis
  MIC: 12.5 µg/mL
Verticillium dahliae
  MIC: 12.5 µg/mL
Phytophthora nicotianae
  MIC: 12.5 µg/mL

## CC(=O)OC[C@@]1(C)[C@@H]2C[C@H](OC(C)=O)[C@@]3(C)Oc4cc(-c5ccccc5)oc(=O)c4[C@H](O)[C@@H]3[C@@]2(C)C=C[C@@H]1O
MGC-803
  CC50: 19.1 µM

## CC1=CC[C@H]2C(C)(C)C(=O)CC[C@]2(C)[C@H]1C[C@@]12O[C@@H]1[C@H](O)C(CO)=C[C@H]2O
[9]
  MIC: 9.48 µg/mL (≈ 25.2 µM)

## CC(=O)O[C@H]1C[C@@H](O)[C@@]2(C)[C@@H](CC[C@]3(C)[C@@H]2CC[C@]2(C)Oc4oc(C)cc(=O)c4C[C@@H]32)C1(C)C
[10]
  MIC: 26.4 µM (≈ 12.5 µg/mL)
KB [7]
  IC50: 32.7 µM
NCI-H187 [8]
  IC50: 32.7 µM
